ChEMBL document CHEMBL4350974, “Synthesis and biological evaluation of methylpyrimidine-fused tricyclic diterpene analogs as novel oral anti-late-onset hypogonadism agents” (Eur J Med Chem, 2019)
Active and inactive are the calls of the source. No cut-off for these calls is given here.

Experiments:
TM3 = test: Induction of testosterone production in mouse TM3 cells assessed as increase in testosterone level at 20 uM measured after 24 hrs by ELISA relative to control; type: functional
[1] = Cytotoxicity against mouse TM3 cells assessed as reduction in cell viability measured after 24 hrs by sulforhodamine B assay; type: cell-based
Rattus norvegicus [2] = test: Anti late-onset hypogonadism activity in cyclophosphamide-induced Sprague-Dawley rat model of partial androgen deficiency assessed as intratesticular testosterone level at 10 mg/kg, sc administered for every 3 days up to 4 weeks ELISA (reference value: 137.99 +/- 19.27 nmol/L); type: functional
Rattus norvegicus [3] = test: Anti late-onset hypogonadism activity in cyclophosphamide-induced Sprague-Dawley rat model of partial androgen deficiency assessed as increase in free testosterone level at 10 mg/kg, sc administered for every 3 days up to 4 weeks and measured every 2 weeks by ELISA; type: functional, organism-based
Rattus norvegicus [4] = test: Anti late-onset hypogonadism activity in cyclophosphamide-induced Sprague-Dawley rat model of partial androgen deficiency assessed as increase in serum total testosterone level at 10 mg/kg, sc administered for every 3 days up to 4 weeks and measured every 2 weeks by ELISA; type: functional, organism-based
[5] = Toxicity in cyclophosphamide-induced Sprague-Dawley rat model of partial androgen deficiency assessed as decrease in body weight at 10 mg/kg, sc administered for every 3 days up to 4 weeks and measured every 3 days; type: organism-based; settings: in vivo
Rattus norvegicus [6] = test: Anti late-onset hypogonadism activity in cyclophosphamide-induced Sprague-Dawley rat model of partial androgen deficiency assessed as inhibition of Leydig cells apoptosis at 10 mg/kg, sc administered for every 3 days up to 4 weeks by DAPI staining based TUNEL assay; type: functional, organism-based
Rattus norvegicus [7] = species: Rattus norvegicus; test: Potency index, ratio of test compound effect to testosterone effect for anti late-onset hypogonadism activity in cyclophosphamide-induced Sprague-Dawley rat model of partial androgen deficiency assessed as inhibition of Leydig cells apoptosis; type: functional
Rattus norvegicus [8] = test: Anti late-onset hypogonadism activity in cyclophosphamide-induced Sprague-Dawley rat model of partial androgen deficiency assessed as weight of testis at 10 mg/kg, sc administered for every 3 days for 4 weeks (reference value: 1.47 +/- 0.13 g); type: functional
Rattus norvegicus [9] = test: Anti late-onset hypogonadism activity in cyclophosphamide-induced Sprague-Dawley rat model of partial androgen deficiency assessed as weight of seminal vesicles at 10 mg/kg, sc administered for every 3 days for 4 weeks Rvb = 1.33 +/- 0.26 g); type: functional
[10] = Toxicity in cyclophosphamide - induced Sprague-Dawley rat model of partial androgen deficiency assessed as sperm viability by semen analysis (reference value: 95.1 +/- 3.2 %)
[11] = Toxicity in cyclophosphamide - induced Sprague-Dawley rat model of partial androgen deficiency assessed as sperm motility by semen analysis (reference value: 88.3 +/- 7.3 %); settings: in vivo

Row | Compound | Activity (TM3) [%] | CC50 at 24 h [1] [µM] | other results
1 | COc1cc2c(cc1C(=O)N1CCc3ccccc31)CCC1C(C)(C)c3nc(C)ncc3C[C@]21C (mixture of isomers) | 116.9 | – | –
2 | COc1ccc2c(c1)[C@@]1(C)Cc3c([nH]c4ccccc34)C(C)(C)C1CC2 (some centres not stated) | 183.4 | < 50 | –
3 | CCCNC(=O)c1cc2c(cc1OC)[C@@]1(C)Cc3cnc(C)nc3C(C)(C)C1CC2 (mixture of isomers) | 140.9 | – | –
4 | COc1cc2c(cc1NC(C)=O)CCC1C(C)(C)c3nc(C)ncc3C[C@]21C (mixture of isomers) | 157.6 | > 200 | –
5 | CCNC(=O)c1cc2c(cc1OC)[C@@]1(C)Cc3cnc(C)nc3C(C)(C)C1CC2 (mixture of isomers) | 141.3 | – | –
6 | CCCCNC(=O)c1cc2c(cc1OC)[C@@]1(C)Cc3cnc(C)nc3C(C)(C)C1CC2 (mixture of isomers) | 166.9 | < 50 | –
7 | COc1cc2c(cc1Br)CCC1C(C)(C)c3nc(C)ncc3C[C@]21C (mixture of isomers) | 119.2 | – | –
8 | CCCOc1ccc2c(c1)[C@@]1(C)Cc3cnc(C)nc3C(C)(C)C1CC2 (mixture of isomers) | 113.2 | – | –
9 | COc1ccc(-c2oc3c(CC=C(C)C)c(O[C@@H]4O[C@H](CO)[C@@H](O)[C@H](O)[C@H]4O)cc(O)c3c(=O)c2O[C@@H]2O[C@@H](C)[C@H](O)[C@@H](O)[C@H]2O)cc1 [ICARIIN] | 139.6 | > 200 | –
10 | COc1cc2c(cc1C(=O)NN1CCCCC1)CCC1C(C)(C)c3nc(C)ncc3C[C@]21C (mixture of isomers) | 111.5 | – | –
11 | C=CCNC(=O)c1cc2c(cc1OC)[C@@]1(C)Cc3cnc(C)nc3C(C)(C)C1CC2 (mixture of isomers) | 142.9 | – | –
12 | COc1ccc2c(c1)[C@@]1(C)Cc3cnc(C)nc3C(C)(C)C1CC2 (mixture of isomers) | 145 | 151 | –
13 | CNCc1cc2c(cc1OC)[C@@]1(C)Cc3cnc(C)nc3C(C)(C)C1CC2 (mixture of isomers) | 176.6 | 124 | –
14 | Cc1ncc2c(n1)C(C)(C)C1CCc3ccc(O)cc3[C@@]1(C)C2 (mixture of isomers) | 124.4 | – | –
15 | COc1cc2c(cc1C(=O)Nc1ccc3[nH]ncc3c1)CCC1C(C)(C)c3nc(C)ncc3C[C@]21C (mixture of isomers) | 181.5 | < 50 | –
16 | Cc1ncc2c(n1)C(C)(C)C1CCc3ccc(OCc4ccccc4)cc3[C@@]1(C)C2 (mixture of isomers) | 133 | – | –
17 | COc1cc2c(cc1C(=O)NCC(C)C)CCC1C(C)(C)c3nc(C)ncc3C[C@]21C (mixture of isomers) | 114.7 | – | –
18 | COc1cccc(NC(=O)c2cc3c(cc2OC)[C@@]2(C)Cc4cnc(C)nc4C(C)(C)C2CC3)c1 (mixture of isomers) | 173.6 | < 50 | –
19 | COc1cc2c(cc1C(=O)NO)CCC1C(C)(C)c3nc(C)ncc3C[C@]21C (mixture of isomers) | 189.5 | 82.2 | –
20 | COc1cc2c(cc1N)CCC1C(C)(C)c3nc(C)ncc3C[C@]21C.Cl (mixture of isomers) | 146.6 | 127 | –
21 | Cc1ncc2c(n1)C(C)(C)C1CCc3ccc(OC(C)C)cc3[C@@]1(C)C2 (mixture of isomers) | 129.3 | – | –
22 | COc1cc2c(cc1C(=O)NC1CCCC1)CCC1C(C)(C)c3nc(C)ncc3C[C@]21C (mixture of isomers) | 122.4 | – | –
23 | COc1ccc2c(c1)[C@@]1(C)Cc3cnc(C)nc3C(C)(C)C1C=C2 (mixture of isomers) | 129.8 | – | –

Row | Compound | Activity (TM3) [%] | CC50 at 24 h [1] [µM] | other results
24 | C=CCOc1ccc2c(c1)[C@@]1(C)Cc3cnc(C)nc3C(C)(C)C1CC2 (mixture of isomers) | 142 | – | –
25 | C#CCNC(=O)c1cc2c(cc1OC)[C@@]1(C)Cc3cnc(C)nc3C(C)(C)C1CC2 (mixture of isomers) | 118.1 | – | –
26 | C#CCOc1ccc2c(c1)[C@@]1(C)Cc3cnc(C)nc3C(C)(C)C1CC2 (mixture of isomers) | 120.5 | – | –
27 | COc1cc2c(cc1C(=O)Nc1ccccc1)CCC1C(C)(C)c3nc(C)ncc3C[C@]21C (mixture of isomers) | 156.8 | < 50 | –
28 | Cc1ncc2c(n1)C(C)(C)C1CCc3ccc(OCc4cccc([N+](=O)[O-])c4)cc3[C@@]1(C)C2 (mixture of isomers) | 122.4 | – | –
29 | COc1cc2c(cc1C(=O)NCc1cccc(Cl)c1)CCC1C(C)(C)c3nc(C)ncc3C[C@]21C (mixture of isomers) | 164.2 | < 50 | –
30 | C[C@]12CC[C@H]3[C@@H](CCC4=CC(=O)CC[C@@]43C)[C@@H]1CC[C@@H]2O [TESTOSTERONE] | – | – | Activity (Rattus norvegicus [2]): 145.38 nmol/L; Activity (Rattus norvegicus [3]): Active; Activity (Rattus norvegicus [4]): Active; Activity [5]: Non-Toxic; inhibition (Rattus norvegicus [6]): Active; Ratio (Rattus norvegicus [7]): 2; Activity (Rattus norvegicus [8]): 1.53 g; Activity (Rattus norvegicus [9]): 1.64 g; Activity [10]: 88.8%; Activity [11]: 79.8%
31 | COc1ccc2c(c1)[C@@]1(C)Cc3sc(N)nc3C(C)(C)C1CC2 (some centres not stated) | 110.9 | < 50 | –
32 | COc1cc2c(cc1C(=O)O)CCC1C(C)(C)c3nc(C)ncc3C[C@]21C (mixture of isomers) | 121.2 | – | –
33 | CCc1ccc(NC(=O)c2cc3c(cc2OC)[C@@]2(C)Cc4cnc(C)nc4C(C)(C)C2CC3)cc1 (mixture of isomers) | 167.8 | < 50 | –
34 | CCCCCNC(=O)c1cc2c(cc1OC)[C@@]1(C)Cc3cnc(C)nc3C(C)(C)C1CC2 (mixture of isomers) | 171.9 | < 50 | –
35 | CCOC(=O)c1[nH]nc2c1C[C@]1(C)c3cc(OC)ccc3CCC1C2(C)C (some centres not stated) | 160.9 | < 50 | –
36 | COc1cc2c(cc1C(N)=O)CCC1C(C)(C)c3nc(C)ncc3C[C@]21C (mixture of isomers) | 169.8 | > 200 | –
37 | COc1ccc2c(c1)[C@@]1(C)Cc3c(n[nH]c3C(=O)O)C(C)(C)C1CC2 (some centres not stated) | 128.2 | > 200 | –
38 | COc1cc2c(cc1C(=O)Nc1nccs1)CCC1C(C)(C)c3nc(C)ncc3C[C@]21C (mixture of isomers) | 134.1 | – | –
39 | COc1ccc2c(c1)[C@@]1(C)Cc3cnc(C)nc3C(C)(C)C1C/C2=N/O (mixture of isomers) | 128.5 | – | –
40 | COc1ccc2c(c1)[C@@]1(C)Cc3c[nH]nc3C(C)(C)C1CC2 (some centres not stated) | 116.6 | < 50 | –
41 | COc1cc2c(cc1C(=O)N(C)C)CCC1C(C)(C)c3nc(C)ncc3C[C@]21C (mixture of isomers) | 133.1 | > 200 | –
42 | COc1cc2c(cc1C(=O)Nc1ncco1)CCC1C(C)(C)c3nc(C)ncc3C[C@]21C (mixture of isomers) | 176.9 | < 50 | –
43 | COc1ccc2c(c1)[C@@]1(C)Cc3nccnc3C(C)(C)C1CC2 (some centres not stated) | 134 | 71.3 | –
44 | COc1cc2c(cc1C(=O)NN)CCC1C(C)(C)c3nc(C)ncc3C[C@]21C (mixture of isomers) | 130 | > 200 | –
45 | COc1ccc2c(c1)[C@@]1(C)Cc3cnc(C)nc3C(C)(C)C1CC2=O (mixture of isomers) | 109.9 | – | –
